# According to ChEMBL document CHEMBL1629662, “Antimicrobial activity of prulifloxacin tested against a worldwide collection of gastroenteritis-producing pathogens, including those causing traveler's diarrhea” (2009):
# How the values were obtained:
# Escherichia coli [1] = assay: Antibacterial activity against Escherichia coli by broth microdilution method; type: functional
# Escherichia coli [2] = assay: Antibacterial activity against Escherichia coli assessed as percent susceptible isolates by broth microdilution method; type: functional
# Escherichia coli [3] = assay: Antibacterial activity against Escherichia coli assessed as percent resistant isolates by broth microdilution method; type: functional
# Salmonella typhimurium [4] = assay: Antibacterial activity against Salmonella enterica serovar Typhimurium by broth microdilution method; type: functional, Salmonella enterica subsp. enterica serovar Typhimurium
# Salmonella typhimurium [5] = assay: Antibacterial activity against Salmonella enterica serovar Typhimurium assessed as percent resistant isolates by broth microdilution method; type: functional, Salmonella enterica subsp. enterica serovar Typhimurium; conditions: pooled result: one value given for 8 cell lines, strains, targets or settings
# Salmonella enteritidis [6] = assay: Antibacterial activity against Salmonella enterica serovar Enteritidis by broth microdilution method; type: functional, Salmonella enterica subsp. enterica serovar Enteritidis
# Salmonella enteritidis [7] = assay: Antibacterial activity against Salmonella enterica serovar Enteritidis assessed as percent susceptible isolates by broth microdilution method; type: functional, Salmonella enterica subsp. enterica serovar Enteritidis; conditions: pooled result: one value given for 5 cell lines, strains, targets or settings
# Salmonella typhi = assay: Antibacterial activity against Salmonella enterica serovar Typhi by broth microdilution method; type: functional, Salmonella enterica subsp. enterica serovar Typhi
# Salmonella paratyphi = assay: Antibacterial activity against Salmonella enterica serovar Paratyphi by broth microdilution method; type: functional, Salmonella enterica subsp. enterica serovar Paratyphi A
# [8] = Antibacterial activity against Salmonella enterica serovar Newport by broth microdilution method; type: functional, Salmonella enterica subsp. enterica serovar Newport
# [9] = Antibacterial activity against Salmonella enterica serovar Virchow by broth microdilution method; type: functional, Salmonella enterica subsp. enterica serovar Virchow
# [10] = Antibacterial activity against Salmonella enterica serovar Heidelberg by broth microdilution method; type: functional, Salmonella enterica subsp. enterica serovar Heidelberg
# Shigella sonnei [11] = assay: Antibacterial activity against Shigella sonnei by broth microdilution method; type: functional
# Shigella sonnei [12] = assay: Antibacterial activity against Shigella sonnei assessed as percent resistant isolates by broth microdilution method; type: functional; conditions: pooled result: one value given for 4 cell lines, strains, targets or settings
# Shigella flexneri = assay: Antibacterial activity against Shigella flexneri by broth microdilution method; type: functional
# Shigella boydii [13] = assay: Antibacterial activity against Shigella boydii by broth microdilution method; type: functional
# Shigella boydii [14] = assay: Antibacterial activity against Shigella boydii assessed as percent susceptible isolates by broth microdilution method; type: functional; conditions: pooled result: one value given for 3 cell lines, strains, targets or settings
# Shigella dysenteriae = assay: Antibacterial activity against Shigella dysenteriae by broth microdilution method; type: functional
# Yersinia enterocolitica [15] = assay: Antibacterial activity against Yersinia enterocolitica by broth microdilution method; type: functional
# Yersinia enterocolitica [16] = assay: Antibacterial activity against Yersinia enterocolitica assessed as percent susceptible isolates by broth microdilution method; type: functional
# Yersinia enterocolitica [17] = assay: Antibacterial activity against Yersinia enterocolitica assessed as percent resistant isolates by broth microdilution method; type: functional
# [18] = test system: Yersinia pseudotuberculosis; assay: Antibacterial activity against Yersinia pseudotuberculosis by broth microdilution method; type: functional
# [19] = test system: Yersinia pseudotuberculosis; assay: Antibacterial activity against Yersinia pseudotuberculosis assessed as percent susceptible isolates by broth microdilution method; type: functional
# Aeromonas hydrophila [20] = assay: Antibacterial activity against Aeromonas hydrophila by broth microdilution method; type: functional
# Aeromonas hydrophila [21] = assay: Antibacterial activity against Aeromonas hydrophila assessed as percent susceptible isolates by broth microdilution method; type: functional
# Aeromonas hydrophila [22] = assay: Antibacterial activity against Aeromonas hydrophila assessed as percent resistant isolates by broth microdilution method; type: functional
# Aeromonas caviae [23] = assay: Antibacterial activity against Aeromonas caviae by broth microdilution method; type: functional
# Aeromonas caviae [24] = assay: Antibacterial activity against Aeromonas caviae assessed as percent susceptible isolates by broth microdilution method; type: functional
# Aeromonas caviae [25] = assay: Antibacterial activity against Aeromonas caviae assessed as percent resistant isolates by broth microdilution method; type: functional
# Aeromonas sobria [26] = assay: Antibacterial activity against Aeromonas sobria by broth microdilution method; type: functional
# Aeromonas sobria [27] = assay: Antibacterial activity against Aeromonas sobria assessed as percent susceptible isolates by broth microdilution method; type: functional
# Aeromonas sobria [28] = assay: Antibacterial activity against Aeromonas sobria assessed as percent resistant isolates by broth microdilution method; type: functional
# Aeromonas veronii [29] = assay: Antibacterial activity against Aeromonas veronii by broth microdilution method; type: functional
# Aeromonas veronii [30] = assay: Antibacterial activity against Aeromonas veronii assessed as percent susceptible isolates by broth microdilution method; type: functional
# Aeromonas veronii [31] = assay: Antibacterial activity against Aeromonas veronii assessed as percent resistant isolates by broth microdilution method; type: functional
# Plesiomonas shigelloides [32] = assay: Antibacterial activity against Plesiomonas shigelloides by broth microdilution method; type: functional
# Plesiomonas shigelloides [33] = assay: Antibacterial activity against Plesiomonas shigelloides assessed as percent susceptible isolates by broth microdilution method; type: functional
# Plesiomonas shigelloides [34] = assay: Antibacterial activity against Plesiomonas shigelloides assessed as percent resistant isolates by broth microdilution method; type: functional
# Vibrio cholerae [35] = assay: Antibacterial activity against Vibrio cholerae by broth microdilution method; type: functional
# Vibrio cholerae [36] = assay: Antibacterial activity against Vibrio cholerae assessed as percent susceptible isolates by broth microdilution method; type: functional
# Vibrio cholerae [37] = assay: Antibacterial activity against Vibrio cholerae assessed as percent resistant isolates by broth microdilution method; type: functional
# Vibrio parahaemolyticus [38] = assay: Antibacterial activity against Vibrio parahaemolyticus by broth microdilution method; type: functional
# Vibrio parahaemolyticus [39] = assay: Antibacterial activity against Vibrio parahaemolyticus assessed as percent susceptible isolates by broth microdilution method; type: functional
# Vibrio parahaemolyticus [40] = assay: Antibacterial activity against Vibrio parahaemolyticus assessed as percent resistant isolates by broth microdilution method; type: functional
# Vibrio alginolyticus [41] = assay: Antibacterial activity against Vibrio alginolyticus by broth microdilution method; type: functional
# Vibrio alginolyticus [42] = assay: Antibacterial activity against Vibrio alginolyticus assessed as percent susceptible isolates by broth microdilution method; type: functional
# Vibrio alginolyticus [43] = assay: Antibacterial activity against Vibrio alginolyticus assessed as percent resistant isolates by broth microdilution method; type: functional
# Vibrio fluvialis [44] = assay: Antibacterial activity against Vibrio fluvialis by broth microdilution method; type: functional
# Vibrio fluvialis [45] = assay: Antibacterial activity against Vibrio fluvialis assessed as percent susceptible isolates by broth microdilution method; type: functional
# Vibrio fluvialis [46] = assay: Antibacterial activity against Vibrio fluvialis assessed as percent resistant isolates by broth microdilution method; type: functional
# Vibrio vulnificus [47] = assay: Antibacterial activity against Vibrio vulnificus by broth microdilution method; type: functional
# Vibrio vulnificus [48] = assay: Antibacterial activity against Vibrio vulnificus assessed as percent susceptible isolates by broth microdilution method; type: functional
# Vibrio vulnificus [49] = assay: Antibacterial activity against Vibrio vulnificus assessed as percent resistant isolates by broth microdilution method; type: functional
# Vibrio sp. [50] = assay: Antibacterial activity against Vibrio sp. by broth microdilution method; type: functional
# Vibrio sp. [51] = assay: Antibacterial activity against Vibrio sp. assessed as percent susceptible isolates by broth microdilution method; type: functional
# Vibrio sp. [52] = assay: Antibacterial activity against Vibrio sp. assessed as percent resistant isolates by broth microdilution method; type: functional
# Campylobacter jejuni [53] = assay: Antibacterial activity against Campylobacter jejuni by broth microdilution method; type: functional
# Campylobacter coli = assay: Antibacterial activity against Campylobacter coli by broth microdilution method; type: functional
# Campylobacter jejuni [54] = assay: Antibacterial activity against Campylobacter jejuni assessed as percent susceptible isolates by broth microdilution method; type: functional; conditions: pooled result: one value given for 2 cell lines, strains, targets or settings
# Campylobacter jejuni [55] = assay: Antibacterial activity against Campylobacter jejuni assessed as percent resistant isolates by broth microdilution method; type: functional; conditions: pooled result: one value given for 2 cell lines, strains, targets or settings
compound,measurement,setting,value
CC1(C)S[C@@H]2[C@H](NC(=O)[C@H](N)c3ccccc3)C(=O)N2[C@H]1C(=O)O [AMPICILLIN],MIC50,Escherichia coli [1],2 µg/mL
same,MIC90,Escherichia coli [1],> 256 µg/mL
same,Activity,Escherichia coli [2],63%
same,Activity,Escherichia coli [3],37%
same,MIC50,Salmonella typhimurium [4],1 µg/mL
same,MIC90,Salmonella typhimurium [4],> 256 µg/mL
same,Activity,Salmonella typhimurium [5],22.8%
same,MIC50,Salmonella enteritidis [6],1 µg/mL
same,MIC90,Salmonella enteritidis [6],> 256 µg/mL
same,Activity,Salmonella enteritidis [7],77.2%
same,MIC90,Salmonella typhi,> 256 µg/mL
same,MIC90,Salmonella paratyphi,> 256 µg/mL
same,MIC90,[8],> 256 µg/mL
same,MIC90,[9],> 256 µg/mL
same,MIC90,[10],> 256 µg/mL
same,MIC50,Shigella sonnei [11],128 µg/mL
same,MIC90,Shigella sonnei [11],> 256 µg/mL
same,Activity,Shigella sonnei [12],59.4%
same,MIC50,Shigella flexneri,128 µg/mL
same,MIC90,Shigella flexneri,> 256 µg/mL
same,MIC50,Shigella boydii [13],128 µg/mL
same,MIC90,Shigella boydii [13],> 256 µg/mL
same,Activity,Shigella boydii [14],40.6%
same,MIC50,Shigella dysenteriae,128 µg/mL
same,MIC90,Shigella dysenteriae,> 256 µg/mL
same,MIC50,Yersinia enterocolitica [15],32 µg/mL
same,MIC90,Yersinia enterocolitica [15],32 µg/mL
same,Activity,Yersinia enterocolitica [16],6.5%
same,Activity,Yersinia enterocolitica [17],91.3%
same,MIC50,[18],32 µg/mL
same,MIC90,[18],32 µg/mL
same,Activity,[19],6.5%
same,MIC50,Aeromonas hydrophila [20],> 256 µg/mL
same,MIC90,Aeromonas hydrophila [20],> 256 µg/mL
same,Activity,Aeromonas hydrophila [21],1%
same,Activity,Aeromonas hydrophila [22],98%
same,MIC50,Aeromonas caviae [23],> 256 µg/mL
same,MIC90,Aeromonas caviae [23],> 256 µg/mL
same,Activity,Aeromonas caviae [24],1%
same,Activity,Aeromonas caviae [25],98%
same,MIC50,Aeromonas sobria [26],> 256 µg/mL
same,MIC90,Aeromonas sobria [26],> 256 µg/mL
same,Activity,Aeromonas sobria [27],1%
same,Activity,Aeromonas sobria [28],98%
same,MIC50,Aeromonas veronii [29],> 256 µg/mL
same,MIC90,Aeromonas veronii [29],> 256 µg/mL
same,Activity,Aeromonas veronii [30],1%
same,Activity,Aeromonas veronii [31],98%
same,MIC,Plesiomonas shigelloides [32],64 µg/mL
same,MIC50,Plesiomonas shigelloides [32],64 µg/mL
same,Activity,Plesiomonas shigelloides [33],0%
same,Activity,Plesiomonas shigelloides [34],100%
same,MIC50,Vibrio cholerae [35],2 µg/mL
same,MIC90,Vibrio cholerae [35],8 µg/mL
same,Activity,Vibrio cholerae [36],90%
same,Activity,Vibrio cholerae [37],0%
same,MIC50,Vibrio parahaemolyticus [38],2 µg/mL
same,MIC90,Vibrio parahaemolyticus [38],8 µg/mL
same,Activity,Vibrio parahaemolyticus [39],90%
same,Activity,Vibrio parahaemolyticus [40],0%
same,MIC50,Vibrio alginolyticus [41],2 µg/mL
same,MIC90,Vibrio alginolyticus [41],8 µg/mL
same,Activity,Vibrio alginolyticus [42],90%
same,Activity,Vibrio alginolyticus [43],0%
same,MIC50,Vibrio fluvialis [44],2 µg/mL
same,MIC90,Vibrio fluvialis [44],8 µg/mL
same,Activity,Vibrio fluvialis [45],90%
same,Activity,Vibrio fluvialis [46],0%
same,MIC50,Vibrio vulnificus [47],2 µg/mL
same,MIC90,Vibrio vulnificus [47],8 µg/mL
same,Activity,Vibrio vulnificus [48],90%
same,Activity,Vibrio vulnificus [49],0%
same,MIC50,Vibrio sp. [50],2 µg/mL
same,MIC90,Vibrio sp. [50],8 µg/mL
same,Activity,Vibrio sp. [51],90%
same,Activity,Vibrio sp. [52],0%
same,MIC50,Campylobacter jejuni [53],2 µg/mL
same,MIC90,Campylobacter jejuni [53],32 µg/mL
same,MIC50,Campylobacter coli,2 µg/mL
same,MIC90,Campylobacter coli,32 µg/mL
CC[C@H]1OC(=O)[C@H](C)[C@@H](O[C@H]2C[C@@](C)(OC)[C@@H](O)[C@H](C)O2)[C@H](C)[C@@H](O[C@@H]2O[C@H](C)C[C@H](N(C)C)[C@H]2O)[C@](C)(O)C[C@@H](C)C(=O)[C@H](C)[C@@H](O)[C@]1(C)O [ERYTHROMYCIN],MIC50,Campylobacter jejuni [53],0.25 µg/mL
same,MIC90,Campylobacter jejuni [53],0.5 µg/mL
same,Activity,Campylobacter jejuni [54],100%
same,Activity,Campylobacter jejuni [55],0%
same,MIC50,Campylobacter coli,0.25 µg/mL
same,MIC90,Campylobacter coli,0.5 µg/mL
